Legend:
Type in all cases: in vivo
[1] = tested on: Impatiens Dazzler ® Pink seeds; test: Root elongation in germinating seeds with calcium effectors; details: 6 mM EGTA, 5 days; for Root length: 5 mM manganese chloride or 8 ppm IBA, 25° C., 20 seeds, water 6.9; for Root growth, in words: 5 mM manganese chloride, 8 ppm IBA
Protocol: (§1) To investigate other mechanisms that might disrupt calcium utilization by germinating seeds leading to adverse effects on root formation and elongation, a number of known calcium effectors were analyzed. EGTA is a well-known calcium-chelating compound which binds free calcium ions. The element, manganese, has been characterized to act as a calcium channel blocker in the cellular environment of the plasma membrane, thereby inhibiting uptake and utilization of calcium by the cell. Finally, auxins, like IBA, can disrupt calcium signaling pathways in the cell, thereby disrupting cellular developmental processes like rooting. For these experiments, seeds were germinated in the presence of these compounds, and the lengths of the roots (in mm) from 20 randomly-selected seeds (per treatment) were measured. These values were then compared to the lengths of the roots from 20 randomly-selected seeds germinated in water during the same time period and under the same environmental conditions.
(§2) Approximately 100 seeds of impatiens (variety Dazzler® Pink commercially available from Ball Horticultural Company, 622 Town Road, West Chicago, Ill. 60185) were germinated in 125 mL Erlenmeyer flasks containing either 40 mL water, 6 mM EGTA, 5 mM manganese chloride or 8 ppm IBA at 25° C. in a lighted growth room on an orbital shaker. After 5 days, root lengths were measured and recorded (see Table 1 below).

[2] = tested on: Pansy Baby Bingo Sky Blue primed seeds; test: as above; details: 5 days; for Inhibition of root length versus water-treated seeds: 6 mM EGTA, 5 mM manganese chloride; for Root length: primed, 6 mM EGTA or 5 mM manganese chloride, 25° C., water 10.3
Protocol: as §1
as §2, with “100 primed” for “100”, “pansy” for “impatiens”, “Baby Bingo Sky Blue” for “Dazzler® Pink”, “EGTA or” for “EGTA,”, “chloride” for “chloride or 8 ppm IBA”

[3] = tested on: Pepper Holiday Flame seeds; test: as above; details: 5 days; for Root length: 6 mM EGTA or 5 mM manganese chloride, 25° C., water 6.5; for Root elongation, in words: 6 mM EGTA, 5 mM manganese chloride
Protocol: as §1
as §2, with “pepper” for “impatiens”, “Holiday Flame” for “Dazzler® Pink”, “EGTA or” for “EGTA,”, “chloride” for “chloride or 8 ppm IBA”

[4] = tested on: Tomato Tumbler seeds; test: as above; details: 5 days; for Root length: 6 mM EGTA or 5 mM manganese chloride, 25° C., water 6.5; for Root elongation, in words: 6 mM EGTA, 5 mM manganese chloride
Protocol: as §1
as §2, with “tomato” for “impatiens”, “Tumbler” for “Dazzler® Pink”, “EGTA or” for “EGTA,”, “chloride” for “chloride or 8 ppm IBA”

[5] = tested on: Rice Cypress seeds; test: as above; details: 5 days; for Root length: 6 mM EGTA or 5 mM manganese chloride, 25° C., water 15.6
Protocol: as §1
Approximately 100 seeds of rice (variety Cypress obtained from LSU Rice Research Station) were germinated in 125 mL Erlenmeyer flasks containing either 40 mL water, 6 mM EGTA or 5 mM manganese chloride at 25° C. in a lighted growth room on an orbital shaker. After 5 days, root lengths were measured and recorded (see Table 1 below).

[6] = tested on: Arabidopsis seeds; test: Root development of germinating seeds with sucrose in nutrient medium; details: 1% (w/v) added to the nutrient medium
From the text: (§3) Also different, Arabidopsis, but not impatiens, root development was sensitive to an ammonium/potassium ionic imbalance in the nutrient medium.

[7] = tested on: germinating impatiens seeds; test: as above; details: 1% (w/v) in the nutrient medium, liquid or solid environment
From the text: as §3

[8] = tested on: Vinca Coconut Cooler seeds; test: Root elongation in germinating seeds with calcium effectors; details: 6 mM EGTA or 5 mM manganese chloride, 5 days, 25° C.
Protocol: as §1
After 5 days, root lengths were measured and recorded (see Table 1 below).

| Compound | Root length [1] | Root growth, in words [1] | Inhibition of root length versus water-treated seeds [2] | Root length [2] | Root length [3] | Root elongation, in words [3] | Root length [4] | Root elongation, in words [4] | Root length [5] | Inhibition of root elongation ([5]; 6 mM EGTA) | root development, in words [6] | root development, in words [7] | Root length ([8]; water 12.3) | Root length ([8]; water 12.3, listed as manganese) | Root elongation, in words ([5]; 5 mM manganese chloride) |
| --- | --- | --- | --- | --- | --- | --- | --- | --- | --- | --- | --- | --- | --- | --- | --- |
| O=C(O)CN(CCOCCOCCN(CC(=O)O)CC(=O)O)CC(=O)O [EGTA, ethylene glycol-bis (β-aminoethyl ether)-N,N,N′,N′-tetraacetic acid] | 0.0 mm | totally inhibited | an even greater extent | 0.4 mm | 1.8 mm | inhibited root elongation | 1.8 mm | significantly inhibited | 3.2 mm | ~80% |  |  |  |  |  |
| O=C(O)CCCc1c[nH]c2ccccc12 [IBA, indole-3-butyric acid] | 0.0 mm | totally inhibited |  |  |  |  |  |  |  |  |  |  |  |  |  |
| OC[C@H]1O[C@@](CO)(O[C@H]2O[C@H](CO)[C@@H](O)[C@H](O)[C@H]2O)[C@@H](O)[C@@H]1O [sucrose] |  |  |  |  |  |  |  |  |  |  | stimulate root development | severely inhibited |  |  |  |
| manganese chloride | 0.2 mm | Some minor root growth | 70-90% | 1.9 mm | 4.2 mm | inhibited root elongation | 4.4 mm | Modest inhibition | 15.6 mm |  |  |  | 3.0 mm | 3 mm | no effect |
